Data taken from patent publication US9822124B2, “Bicyclic heteroaromatic carboxamide compounds useful as Pim kinase inhibitors” (Incyte Corporation, priority 2014, dated 2017).

Key:
Format in all cases: biochemical
Pim-1 = Pim-1 (Homo sapiens (Human), UniProt P11309); experiment: Pim-1 kinase assay (AlphaScreen, Biotin-labeled BAD peptide substrate); details: 1 mM ATP; read-out: Pim1 IC50
How it was run: (§1)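 Kinase reactions ran 1 h at 25° C, pH 7.5, with 0.05 μM biotin-BAD peptide, 1 mM ATP, and 2.5 μM Pim-1 or 1.25 μM Pim-3. EDTA stop buffer carried anti-phospho-Bad (Ser112) antibody plus streptavidin donor and Protein-A acceptor beads. AlphaScreen signal was read after 1 h in the dark.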

Pim-2 = Pim-2 (Homo sapiens (Human), UniProt Q9P1W9); experiment: Pim-2 kinase assay (TR-FRET, Fluorescein-labeled CREBtide peptide substrate); details: 1 mM ATP; read-out: Pim2 IC50
Sequence of Pim-2 (Q9P1W9 whole entry): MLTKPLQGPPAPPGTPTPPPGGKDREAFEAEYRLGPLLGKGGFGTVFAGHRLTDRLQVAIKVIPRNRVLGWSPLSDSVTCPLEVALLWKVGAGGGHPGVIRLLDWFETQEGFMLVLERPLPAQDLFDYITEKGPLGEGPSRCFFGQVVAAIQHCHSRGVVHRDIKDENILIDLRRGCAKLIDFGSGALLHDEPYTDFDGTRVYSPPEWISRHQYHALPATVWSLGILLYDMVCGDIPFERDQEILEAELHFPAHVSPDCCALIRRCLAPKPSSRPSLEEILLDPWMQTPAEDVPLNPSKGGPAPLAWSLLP
How it was run: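 Human Pim-2 (1 nM) phosphorylated 0.05 μM fluorescein-CREBtide with 1 mM ATP for 2 h at 25 °C in Tris buffer pH 7.5 containing MgCl2, DTT, BSA and Tween-20. Reactions were stopped with EDTA and Tb-anti-pSer133 antibody was added, and TR-FRET was read after 30 min.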

Pim-3 = Pim-3 (Homo sapiens (Human), UniProt Q86V86); experiment: Pim-3 kinase assay (AlphaScreen, Biotin-labeled BAD peptide substrate); details: 1 mM ATP; read-out: Pim3 IC50
How it was run: as §1

Sequence of Pim-1 (P11309 whole entry): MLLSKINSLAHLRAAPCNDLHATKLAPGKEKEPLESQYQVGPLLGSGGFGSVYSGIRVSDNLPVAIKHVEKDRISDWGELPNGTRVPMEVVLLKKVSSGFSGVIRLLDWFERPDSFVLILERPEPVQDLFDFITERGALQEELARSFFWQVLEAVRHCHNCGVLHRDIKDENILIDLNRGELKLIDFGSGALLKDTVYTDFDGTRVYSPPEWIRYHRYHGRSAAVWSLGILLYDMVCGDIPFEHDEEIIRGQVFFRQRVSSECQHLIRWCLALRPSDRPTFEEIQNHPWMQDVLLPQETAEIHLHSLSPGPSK

## CC(C)c1csc2ccc(C(=O)Nc3cnccc3N3C[C@H](C)C[C@H](N)C3)nc12 [Example 62, N-(4-((3S,5R)-3-Amino-5-methylpiperidin-1-yl)pyridin-3-yl)-3-isopropylthieno[3,2-b]pyridine-5-carboxamide]
Pim-1
  IC50: ≤ 10 nM
Pim-2
  IC50: ≤ 100 nM
Pim-3
  IC50: ≤ 10 nM

## C[C@@H]1C[C@H](N)CN(c2ccncc2NC(=O)c2ccc3scc(-c4cnn(C)c4)c3n2)C1 [Example 63, N-(4-((3S,5R)-3-Amino-5-methylpiperidin-1-yl)pyridin-3-yl)-3-(1-methyl-1H-pyrazol-4-yl)thieno[3,2-b]pyridine-5-carboxamide]
Pim-1
  IC50: ≤ 10 nM
Pim-2
  IC50: > 2000 nM
Pim-3
  IC50: > 40 nM

## COc1ccc(F)c(-c2csc3ccc(C(=O)Nc4cnccc4N4C[C@H](C)C[C@H](N)C4)nc23)c1F [Example 64, N-(4-((3S,5R)-3-Amino-5-methylpiperidin-1-yl)pyridin-3-yl)-3-(2,6-difluoro-3-methoxyphenyl)thieno[3,2-b]pyridine-5-carboxamide]
Pim-1
  IC50: ≤ 10 nM
Pim-2
  IC50: 100 to 1000 nM
Pim-3
  IC50: 10 to 50 nM

## C[C@@H]1C[C@H](N)CN(c2ccncc2NC(=O)c2ccc3scc(C4CC4)c3n2)C1 [Example 65, N-(4-((3S,5R)-3-Amino-5-methylpiperidin-1-yl)pyridin-3-yl)-3-cyclopropylthieno[3,2-b]pyridine-5-carboxamide]
Pim-1
  IC50: ≤ 10 nM
Pim-2
  IC50: ≤ 100 nM
Pim-3
  IC50: ≤ 10 nM

## CCc1csc2ccc(C(=O)Nc3cnccc3N3CCC[C@H](N)C3)nc12 [Example 66, N-{4-[(3S)-3-Aminopiperidin-1-yl]pyridin-3-yl}-3-ethylthieno[3,2-b]pyridine-5-carboxamide]
Pim-1
  IC50: ≤ 10 nM
Pim-2
  IC50: 100 to 1000 nM
Pim-3
  IC50: ≤ 10 nM

## N[C@H]1CCCN(c2ccncc2NC(=O)c2ccc3scc(C4CC4)c3n2)C1 [Example 67, (S)-N-(4-(3-Aminopiperidin-1-yl)pyridin-3-yl)-3-cyclopropylthieno[3,2-b]pyridine-5-carboxamide]
Pim-1
  IC50: ≤ 10 nM
Pim-2
  IC50: 100 to 1000 nM
Pim-3
  IC50: ≤ 10 nM

## CC(C)c1coc2ccc(C(=O)Nc3cnccc3[C@@H]3C[C@H](C)C[C@H](N)C3)nc12 [Example 68, N-{4-[(1R,3S,5S)-3-Amino-5-methylcyclohexyl]pyridin-3-yl}-3-isopropylfuro[3,2-b]pyridine-5-carboxamide]
Pim-1
  IC50: ≤ 10 nM
Pim-2
  IC50: ≤ 100 nM
Pim-3
  IC50: ≤ 10 nM

## C[C@H]1CN(c2ccncc2NC(=O)c2ccc3cc(C4CC4)oc3n2)C[C@@H](N)[C@@H]1O [Example 69, N-{4-[(3R,4R,5S)-3-Amino-4-hydroxy-5-methylpiperidin-1-yl]pyridin-3-yl}-2-cyclopropylfuro[2,3-b]pyridine-6-carboxamide]
Pim-1
  IC50: ≤ 10 nM
Pim-2
  IC50: ≤ 100 nM
Pim-3
  IC50: ≤ 10 nM

## C[C@@H]1C[C@H](N)CN(c2ccncc2NC(=O)c2ccc3cc(C4CC4)oc3n2)C1 [Example 70, N-{4-[(3S,5R)-3-Amino-5-methylpiperidin-1-yl]pyridin-3-yl}-2-cyclopropylfuro[2,3-b]pyridine-6-carboxamide]
Pim-1
  IC50: ≤ 10 nM
Pim-2
  IC50: ≤ 100 nM
Pim-3
  IC50: ≤ 10 nM

## C[C@H]1CN(c2ccncc2NC(=O)c2ccc3cc([C@@H]4C[C@H]4c4ccccc4)oc3n2)C[C@@H](N)[C@@H]1O [Example 71, N-(4-((3R,4R,5S)-3-Amino-4-hydroxy-5-methylpiperidin-1-yl)pyridin-3-yl)-2-((1R,2R)-2-phenylcyclopropyl)furo[2,3-b]pyridine-6-carboxamide]
Pim-1
  IC50: ≤ 10 nM
Pim-2
  IC50: ≤ 100 nM
Pim-3
  IC50: ≤ 10 nM

## C[C@H]1CN(c2ccncc2NC(=O)c2ccc3cc([C@H]4C[C@@H]4c4ccccc4)oc3n2)C[C@@H](N)[C@@H]1O [Example 72, N-(4-((3R,4R,5S)-3-Amino-4-hydroxy-5-methylpiperidin-1-yl)pyridin-3-yl)-2-((1S,2S)-2-phenylcyclopropyl)furo[2,3-b]pyridine-6-carboxamide]
Pim-1
  IC50: ≤ 10 nM
Pim-2
  IC50: 1000 to 10000 nM
Pim-3
  IC50: ≤ 10 nM

## C[C@H]1CN(c2ccncc2NC(=O)c2ccc3ccn(C4CCC4)c3n2)C[C@@H](N)[C@@H]1O [Example 77, N-{4-[(3R,4R,5S)-3-Amino-4-hydroxy-5-methylpiperidin-1-yl]pyridin-3-yl}-1-cyclobutyl-1H-pyrrolo[2,3-b]pyridine-6-carboxamide]
Pim-1
  IC50: ≤ 10 nM
Pim-2
  IC50: 1000 to 10000 nM
Pim-3
  IC50: ≤ 10 nM

## C[C@@H]1C[C@H](N)CN(c2ccncc2NC(=O)c2ccc3ccn(C4CCC4)c3n2)C1 [Example 78, N-{4-[(3S,5R)-3-Amino-5-methylpiperidin-1-yl]pyridin-3-yl}-1-cyclobutyl-1H-pyrrolo[2,3-b]pyridine-6-carboxamide]
Pim-1
  IC50: ≤ 10 nM
Pim-2
  IC50: 100 to 1000 nM
Pim-3
  IC50: ≤ 10 nM

## C[C@H]1CN(c2ccncc2NC(=O)c2ccc3sc(C4CC4)nc3n2)C[C@@H](N)[C@@H]1O [Example 79, N-{4-[(3R,4R,5S)-3-Amino-4-hydroxy-5-methylpiperidin-1-yl]pyridin-3-yl}-2-cyclopropyl[1,3]thiazolo[4,5-b]pyridine-5-carboxamide]
Pim-1
  IC50: ≤ 10 nM
Pim-2
  IC50: 100 to 1000 nM
Pim-3
  IC50: ≤ 10 nM

## C[C@@H]1C[C@H](N)CN(c2ccncc2NC(=O)c2ccc3sc(C4CC4)nc3n2)C1 [Example 80, N-(4-((3S,5R)-3-Amino-5-methylpiperidin-1-yl)pyridin-3-yl)-2-cyclopropylthiazolo[4,5-b]pyridine-5-carboxamide]
Pim-1
  IC50: ≤ 10 nM
Pim-2
  IC50: 100 to 1000 nM
Pim-3
  IC50: ≤ 10 nM

## C[C@@H]1C[C@H](N)C[C@H](c2ccncc2NC(=O)c2ccn3ncc(-c4c(F)cc(CO)cc4F)c3n2)C1 [Example 81, N-{4-[(1R,3S,5S)-3-Amino-5-methylcyclohexyl]pyridin-3-yl}-3-[2,6-difluoro-4-(hydroxymethyl)phenyl]pyrazolo[1,5-a]pyrimidine-5-carboxamide]
Pim-1
  IC50: ≤ 10 nM
Pim-2
  IC50: ≤ 100 nM
Pim-3
  IC50: ≤ 10 nM

## CC(C)c1cnn2ccc(C(=O)Nc3cnccc3[C@@H]3C[C@H](C)C[C@H](N)C3)nc12 [Example 82, N-{4-[(1R,3S,5S)-3-Amino-5-methylcyclohexyl]pyridin-3-yl}-3-isopropylpyrazolo[1,5-a]pyrimidine-5-carboxamide]
Pim-1
  IC50: ≤ 10 nM
Pim-2
  IC50: 1000 to 10000 nM
Pim-3
  IC50: 10 to 50 nM

## C[C@@H]1C[C@H](N)C[C@H](c2ccncc2NC(=O)c2ccn3ncc(-c4c(F)cccc4F)c3n2)C1 [Example 83, N-{4-[(1R,3S,5S)-3-Amino-5-methylcyclohexyl]pyridin-3-yl}-3-(2,6-difluorophenyl)pyrazolo[1,5-a]pyrimidine-5-carboxamide]
Pim-1
  IC50: ≤ 10 nM
Pim-2
  IC50: 100 to 1000 nM
Pim-3
  IC50: ≤ 10 nM

## COc1cc(F)c(-c2cnn3ccc(C(=O)Nc4cnccc4[C@@H]4C[C@H](C)C[C@H](N)C4)nc23)c(F)c1 [Example 84, N-{4-[(1R,3S,5S)-3-Amino-5-methylcyclohexyl]pyridin-3-yl}-3-(2,6-difluoro-4-methoxyphenyl)pyrazolo[1,5-a]pyrimidine-5-carboxamide]
Pim-1
  IC50: ≤ 10 nM
Pim-2
  IC50: ≤ 100 nM
Pim-3
  IC50: ≤ 10 nM

## CCc1cc2nc(C(=O)Nc3cnccc3N3C[C@@H](N)[C@H](O)[C@@H](C)C3)ccc2s1 [Example 85, N-(4-((3R,4R,5S)-3-amino-4-hydroxy-5-methylpiperidin-1-yl)pyridin-3-yl)-2-ethylthieno[3,2-b]pyridine-5-carboxamide]
Pim-1
  IC50: ≤ 10 nM
Pim-2
  IC50: ≤ 100 nM
Pim-3
  IC50: ≤ 10 nM
